Results from article PMC5295242, “Synthesis of Natural O-Linked Carba-Disaccharides, (+)- and (−)-Pericosine E, and Their Analogues as α-Glucosidase Inhibitors” (Marine Drugs, 2017).

Columns and labels:
[1] = target: β-glucosidase (sweet almond); assay: β-glucosidase inhibition assay (p-nitrophenyl β-D-glucopyranoside substrate); format: biochemical; conditions: sweet almond enzyme; NI = no inhibition
Protocol: (§1) Eight samples synthesized here were used in a biological assay against three glycosidases, namely α-glucosidase (yeast), β-glucosidase (sweet almond), and α-mannosidase (Jack bean).
(§2) After incubation for 20 min at 37 °C, the reaction was interrupted by the addition of 0.5 M sodium carbonate (100 μL). The amount of p-nitrophenol liberated was measured colorimetrically at 400 nm (optical density at 400 nm: ODtest). […] Assays for β-glucosidase and α-mannosidase were carried out as outlined above using p-nitrophenyl β-D-glucopyranoside and α-D-mannopyranoside as the substrates.
(§3) Assays on β-glucosidase and α-mannnosidase inhibition of synthesized carbadisaccharides 6 and 21–23 were carried out in a similar fashion.

[2] = target: T1, α-mannosidase (Jack bean) (Canavalia ensiformis, UniProt C0HJB3); assay: α-mannosidase inhibition assay (p-nitrophenyl α-D-mannopyranoside substrate); format: biochemical; conditions: Jack bean enzyme; NI = no inhibition
T1 construct: purchased Sigma-Aldrich Co. LLC. lot; 055K7047 (catalogue number not given)
T1 sequence (C0HJB3 1-981): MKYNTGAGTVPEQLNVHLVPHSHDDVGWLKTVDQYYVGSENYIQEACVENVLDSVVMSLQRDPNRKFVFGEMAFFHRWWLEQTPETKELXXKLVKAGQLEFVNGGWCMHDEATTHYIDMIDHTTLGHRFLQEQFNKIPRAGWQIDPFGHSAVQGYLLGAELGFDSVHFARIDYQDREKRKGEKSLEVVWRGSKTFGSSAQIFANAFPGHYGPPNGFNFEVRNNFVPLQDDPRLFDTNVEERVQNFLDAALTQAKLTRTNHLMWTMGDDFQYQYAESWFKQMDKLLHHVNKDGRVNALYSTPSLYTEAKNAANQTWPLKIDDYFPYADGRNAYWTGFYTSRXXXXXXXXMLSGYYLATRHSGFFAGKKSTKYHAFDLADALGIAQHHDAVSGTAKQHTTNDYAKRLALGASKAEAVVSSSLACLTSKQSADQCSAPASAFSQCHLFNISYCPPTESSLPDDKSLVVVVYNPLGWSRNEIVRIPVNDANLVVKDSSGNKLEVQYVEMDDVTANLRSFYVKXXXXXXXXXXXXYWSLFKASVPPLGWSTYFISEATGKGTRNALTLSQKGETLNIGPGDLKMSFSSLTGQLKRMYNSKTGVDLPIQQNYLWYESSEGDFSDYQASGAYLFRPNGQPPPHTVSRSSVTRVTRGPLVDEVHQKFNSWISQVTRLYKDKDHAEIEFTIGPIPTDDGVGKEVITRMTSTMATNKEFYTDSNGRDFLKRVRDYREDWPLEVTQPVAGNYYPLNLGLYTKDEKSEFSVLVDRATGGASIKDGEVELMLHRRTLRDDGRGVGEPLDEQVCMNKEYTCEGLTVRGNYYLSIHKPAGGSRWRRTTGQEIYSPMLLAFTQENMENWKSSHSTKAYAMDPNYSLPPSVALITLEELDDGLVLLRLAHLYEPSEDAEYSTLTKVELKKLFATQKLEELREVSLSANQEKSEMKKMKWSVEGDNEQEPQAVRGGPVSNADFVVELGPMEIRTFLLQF
Protocol: as §1, §2, §3

[3] = system: melanoma cell line UACC-62; design: method as in PMID 24285637, PMID 26928999; conditions: cited from earlier work
[4] = target: α-glucosidase (yeast) (Saccharomyces cerevisiae, UniProt P53341); assay: α-glucosidase inhibition assay (p-nitrophenyl α-D-glucopyranoside substrate); format: biochemical; conditions: yeast enzyme; relative to positive control DNJ
Protocol: as §1, §2

Chain of α-glucosidase (yeast) (P53341 whole entry): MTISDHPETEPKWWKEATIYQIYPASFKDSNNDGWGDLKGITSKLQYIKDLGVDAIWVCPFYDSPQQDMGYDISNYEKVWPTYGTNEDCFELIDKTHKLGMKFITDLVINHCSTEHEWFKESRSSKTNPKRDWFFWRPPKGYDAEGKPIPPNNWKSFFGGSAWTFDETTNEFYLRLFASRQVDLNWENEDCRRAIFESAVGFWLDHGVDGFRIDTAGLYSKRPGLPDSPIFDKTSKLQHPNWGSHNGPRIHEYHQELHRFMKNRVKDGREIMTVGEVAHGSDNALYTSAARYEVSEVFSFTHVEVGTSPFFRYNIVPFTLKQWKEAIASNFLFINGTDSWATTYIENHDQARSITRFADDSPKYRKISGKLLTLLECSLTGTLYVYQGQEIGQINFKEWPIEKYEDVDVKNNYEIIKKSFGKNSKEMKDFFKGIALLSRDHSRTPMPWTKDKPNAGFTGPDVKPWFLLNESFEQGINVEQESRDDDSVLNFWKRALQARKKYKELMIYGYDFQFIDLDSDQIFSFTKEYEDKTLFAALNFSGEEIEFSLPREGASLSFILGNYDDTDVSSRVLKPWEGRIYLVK

Compound	IC50 [1] [mM]	IC50 [2] [mM]	inhibition against melanoma cell line UACC-62 [3]	α-glucosidase inhibitory potency relative to deoxynojirimycin (DNJ), fold/times [4]
COC(=O)C1=C[C@H](O)[C@H](O)[C@H](O[C@H]2C(C(=O)OC)=C[C@@H](O)[C@@H](O)[C@@H]2O)[C@H]1Cl [(+)-21]	> 10	> 10		
COC(=O)C1=C[C@H](O)[C@H](O)[C@H](O)[C@@H]1O[C@H]1[C@@H](O)[C@@H](O)C=C(C(=O)OC)[C@@H]1Cl [(+)-22]	> 10	> 10		
C=C[C@@H]1C[C@H](C)C[C@H](C)[C@H]1c1c(O)ccn(O[C@@H]2C(C(=O)OC)=C[C@@H](O)[C@@H](O)[C@H]2O)c1=O [maximiscin]			potent inhibition	
COC(=O)C1=C[C@@H](O)[C@@H](O)[C@@H](O[C@@H]2C(C(=O)OC)=C[C@H](O)[C@H](O)[C@H]2O)[C@@H]1Cl [(−)-21]	> 10	> 10		one-third
COC(=O)C1=C[C@@H](O)[C@@H](O)[C@@H](O[C@@H]2C(C(=O)OC)=C[C@H](O)[C@H](O)[C@@H]2O)[C@@H]1Cl [(−)-pericosine E (6), (3R,4R,5R,6R)-methyl 6-chloro-3,4-dihydroxy-5-{[(1R,4S,5S,6S)-4,5,6-trihydroxy-2-(methoxycarbonyl)cyclohex-2-en-1-yl]oxy}cyclohex-1-enecarboxylate]	> 10	> 10		one-third

Further lines, with some results ahead:

IC50 [1] [mM]	IC50 [2] [mM]	Compound	inhibition against melanoma cell line UACC-62 [3]	α-glucosidase inhibitory potency relative to deoxynojirimycin (DNJ), fold/times [4]
> 10	> 10	COC(=O)C1=C[C@@H](O)[C@@H](O)[C@@H](O[C@H]2C(C(=O)OC)=C[C@@H](O)[C@@H](O)[C@@H]2O)[C@@H]1Cl [(−)-23]		
> 10	> 10	COC(=O)C1=C[C@H](O)[C@H](O)[C@@H](O)[C@@H]1O[C@H]1[C@@H](O)[C@@H](O)C=C(C(=O)OC)[C@@H]1Cl [(+)-23]		
> 10	> 10	COC(=O)C1=C[C@H](O)[C@H](O)[C@H](O[C@H]2C(C(=O)OC)=C[C@@H](O)[C@@H](O)[C@H]2O)[C@H]1Cl [(+)-pericosine E (6)]		
> 10	> 10	COC(=O)C1=C[C@@H](O)[C@@H](O)[C@@H](O[C@H]2C(C(=O)OC)=C[C@@H](O)[C@@H](O)[C@H]2O)[C@@H]1Cl [(−)-22]		
